Reference: PMC5103216, “Novel Agonist Bioisosteres and Common Structure-Activity Relationships for The Orphan G Protein-Coupled Receptor GPR139” (Scientific Reports, 2016)

How the values were obtained:
Format in all cases: cell-based
GPR139 [1] = target: T1, GPR139 (Homo sapiens, UniProt Q6DWJ6); assay: IP-One HTRF assay measuring Gq activation in CHO-139; settings: IP-One HTRF assay, CHO-139, 20 mM LiCl
T1 sequence (Q6DWJ6 1-353): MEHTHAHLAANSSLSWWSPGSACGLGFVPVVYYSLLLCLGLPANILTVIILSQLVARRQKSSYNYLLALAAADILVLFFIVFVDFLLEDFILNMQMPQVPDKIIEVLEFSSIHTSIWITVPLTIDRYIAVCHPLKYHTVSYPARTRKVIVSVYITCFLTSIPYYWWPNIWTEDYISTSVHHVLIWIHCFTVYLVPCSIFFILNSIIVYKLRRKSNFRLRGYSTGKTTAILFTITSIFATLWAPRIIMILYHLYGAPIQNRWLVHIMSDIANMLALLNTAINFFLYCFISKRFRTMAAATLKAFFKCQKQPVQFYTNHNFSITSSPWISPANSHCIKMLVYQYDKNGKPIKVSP
Description: (§1) Figure 3 IP-One HTRF® assay measuring Gq activation. Concentration-response curves of 1a, 7c (racemic), L-Trp, L-Phe, DL43, DL126, DL24, DL22, DL132 and DL130 on (A) CHO-139 and (B) CHO-M1 in the IP-One assay (final conc of LiCl = 20 mM). The dotted line represent the [IP1] response from (A) 10 μM 1a and (B) 1 μM carbachol, which is an agonist for the muscarinic acethylcholine receptor M1 that activates the Gq coupled pathway. The graphs are means ± SEM based on three independent experiments performed in triplicates.
(§2) The IP-One assay was performed as described in the work by Thomsen et al.[28], with few modifications. Breifly, CHO-139 and CHO-M1 were detached and re-suspended to a concentration of 10 million cells/mL. 5 μL 2x concentrated compound (+40 mM LiCl) and 5 μL cell suspension (50,000 cells/well) was mixed. The plate was sealed and incubated at 37 °C for 1 hour. Next, 10 μL detection reagents (lysis buffer containing 2.5% Eu^3+-anti-IP1 antibody and 2.5% IP1-d2) was added and the plate was incubated for 1 hour at room temperature. The plate was read on an Envision (PerkinElmer, Waltham, MA, USA). The time resolved-fluorescence resonance energy transfer (TR-FRET) 665 nm/615 nm ratio, which is inversely proportional to the inositol monophosphate (IP1) accumulation, was used to determine the concentration of the IP1 response.

M1 receptor = target: T2, M1 receptor (Homo sapiens, UniProt P11229); assay: IP-One HTRF assay in CHO-M1 (control)
T2 construct: host or cells: CHO-k1
T2 sequence (P11229 1-460): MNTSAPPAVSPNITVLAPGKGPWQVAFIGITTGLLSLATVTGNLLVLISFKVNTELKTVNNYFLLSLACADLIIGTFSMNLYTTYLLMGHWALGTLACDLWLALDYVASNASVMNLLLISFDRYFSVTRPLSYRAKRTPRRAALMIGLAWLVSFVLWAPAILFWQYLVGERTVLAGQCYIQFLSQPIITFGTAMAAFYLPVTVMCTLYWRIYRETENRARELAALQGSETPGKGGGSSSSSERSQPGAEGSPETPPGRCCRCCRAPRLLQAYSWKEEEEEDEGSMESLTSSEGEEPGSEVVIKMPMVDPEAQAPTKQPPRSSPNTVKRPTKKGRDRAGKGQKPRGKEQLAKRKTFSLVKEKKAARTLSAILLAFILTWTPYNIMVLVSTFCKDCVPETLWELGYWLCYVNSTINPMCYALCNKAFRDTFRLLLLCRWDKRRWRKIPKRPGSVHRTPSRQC
Description: as §1, §2

GPR139 [2] = target: T1, GPR139; assay: cAMP dynamic 2 assay measuring Gi activation (forskolin) in CHO-139; settings: CHO-139
Description: The cAMP assay was performed as described in the work by Thomsen et al.[28] with few modifications. Breifly, CHO-139 and CHO-M1 was detached and resuspended to a concentration of 1 million cells/mL. 5 μL 2x concentrated compound (for Gs: +100 μM IBMX and for Gi: +100 μM IBMX +10 μM forskolin (Fsk)) and 5 μL cell suspension (5,000 cells/well) was mixed. The plate was sealed and incubated at room temperature for 30 min. Next, 10 μL detection reagents (lysis buffer containing 2.5% Eu^3+-anti-cAMP antibody and 2.5% cAMP-d2) was added and the plate was incubated for 1 hour at room temperature. The plate was read on an Envision (PerkinElmer, Waltham, MA, USA). The TR-FRET 665 nm/615 nm ratio, which is inversely proportional with the cAMP production, was used to determination the concentration of the cAMP response. […]
Supplementary Figure 2. cAMP dynamic 2 assay measuring Gi activation. 5,000 cells/well of CHO-139 (pink bars) or CHO-M1 (blue bars) cells are
incubated with the indicated compounds for 30 min at room temperature in the presence of 50 µM IBMX and 5 uM Fsk (expect “buffer (-Fsk) where only 50
µM IBMX is present). The straight line indicate the level of cAMP upon activation with 5 uM Fsk, and the grey area ±10% of the response. The responses are
one representative out of at two independent experiments performed in triplicates. Data points are means ± SD.

## O=C(CN1CCCc2ccccc21)NNC(=O)c1ccc2c(c1)OCO2 [DL22]
GPR139 [1]
  EC50: 4.18 µM
M1 receptor
  IP1 response in CHO-M1 cells: no response is seen in CHO-M1 cells
GPR139 [2]
  Inhibition of the cAMP response induced by 5 μM forskolin (Gi), in words: none of the tested compounds were able to inhibit the cAMP response

## COc1cc(OC)cc(C(=O)NNC(=O)C2CCCc3ccccc32)c1 (stereo not drawn) [DL24]
GPR139 [1]
  EC50: 0.75 µM
M1 receptor
  IP1 response in CHO-M1 cells: no response is seen in CHO-M1 cells
GPR139 [2]
  Inhibition of the cAMP response induced by 5 μM forskolin (Gi), in words: none of the tested compounds were able to inhibit the cAMP response

## CCn1c(C)nc2cc(C(=O)NNC(=O)Cc3cccc4ccccc34)ccc21 [DL43]
GPR139 [1]
  EC50: 9.57 µM
M1 receptor
  IP1 response in CHO-M1 cells: no response is seen in CHO-M1 cells
GPR139 [2]
  Inhibition of the cAMP response induced by 5 μM forskolin (Gi), in words: none of the tested compounds were able to inhibit the cAMP response

## O=C(Cc1cccc2ccccc12)NNC(=O)c1ccc2c(c1)OCO2 [DL126]
GPR139 [1]
  EC50: 5.62 µM
M1 receptor
  IP1 response in CHO-M1 cells: no response is seen in CHO-M1 cells
GPR139 [2]
  Inhibition of the cAMP response induced by 5 μM forskolin (Gi), in words: none of the tested compounds were able to inhibit the cAMP response

## O=C(CNC(=O)c1ccc2c(c1)OCO2)NC1CCSc2ccc(F)cc21 (stereo not drawn) [DL130]
GPR139 [1]
  EC50: 4.98 µM
M1 receptor
  IP1 response in CHO-M1 cells: no response is seen in CHO-M1 cells
GPR139 [2]
  Inhibition of the cAMP response induced by 5 μM forskolin (Gi), in words: none of the tested compounds were able to inhibit the cAMP response

## O=C(NCC(=O)N1CCCC1c1ccccc1)c1ccc2c(c1)OCO2 (stereo not drawn) [DL132]
GPR139 [1]
  EC50: 4.16 µM
M1 receptor
  IP1 response in CHO-M1 cells: no response is seen in CHO-M1 cells
GPR139 [2]
  Inhibition of the cAMP response induced by 5 μM forskolin (Gi), in words: none of the tested compounds were able to inhibit the cAMP response
